Source: patent publication US20110213026A1, “EXTRACTS WITH LIVER-X-RECEPTOR MODULATORS, COMPOUNDS AND THEIR USE ESPECIALLY IN WEIGHT CONTROL” (INTERMED DISCOVERY GMBH, priority 2007, published 2011)

What was measured:
[1] = molecular target: T1, LXR ligand binding domain (GST-LXR LBD) (Homo sapiens, UniProt Q13133); assay: In vitro LXR assay (HTR-FRET, coactivator b-SRC1 recruitment); assay type: biochemical; conditions: FRET 12-point dose response
T1 sequence (Q13133 209-447): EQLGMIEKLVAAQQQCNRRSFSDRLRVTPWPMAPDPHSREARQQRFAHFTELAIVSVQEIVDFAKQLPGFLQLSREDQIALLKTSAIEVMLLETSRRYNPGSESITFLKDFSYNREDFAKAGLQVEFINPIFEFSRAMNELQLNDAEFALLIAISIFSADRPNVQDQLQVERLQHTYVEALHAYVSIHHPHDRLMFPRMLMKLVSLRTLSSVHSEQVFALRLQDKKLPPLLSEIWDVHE
Excerpt: The LXR assay is configured using time-resolved fluorescence resonance energy transfer technology (HTR-FRET) (see Albers M, Blume B, Schlueter T, Wright MB, Kober I, Kremoser C, Deuschle U, Koegl M; “A novel principle for partial agonism of liver X receptor ligands. Competitive recruitment of activators and repressors”. J. Biol. Chem. 2006 24;281(8) 4920-30; and Chin J, Adams A D, Bouffard A, Green A, Lacson R G, Smith T, Fischer P A, Menke J G, Sparrow C P, Mitnaul L J; “Miniaturization of cell-based beta-lactamase-dependent FRET assays to ultra-high throughput formats to identify agonists of human liver X receptors”. Assay Drug Dev. Technol. 2003 1(6):777-87).
In the presence of an agonist, a fusion protein of glutathione S-transferase (GST) and LXR ligand binding domain (GST-LXR LBD) associates with a biotin-labeled nuclear receptor coactivator (b-SRC1). A fluorescent signal is detected in the presence of Eu-labeled anti GST antibodies and streptavidin-labeled allophycocyanin (APC). FRET is made possible by agonist-dependent close interaction of the test proteins.
Compounds which act as agonists at the LXR ligand binding domain are detected by an increase in time-resolved fluorescence. This LXR-FRET is performed as described by Albers et al. (loc. cit.).
FRET-active compounds are assayed in a FRET 12-point dose response experiment to determine the EC50—values of the compounds mentioned in the following table 9: […]

NPFF2 receptor = NPFF2 receptor (Homo sapiens, UniProt Q9Y5X5); conditions: literature report; cited from earlier work
NPFF2 receptor, sequence (Q9Y5X5 whole entry): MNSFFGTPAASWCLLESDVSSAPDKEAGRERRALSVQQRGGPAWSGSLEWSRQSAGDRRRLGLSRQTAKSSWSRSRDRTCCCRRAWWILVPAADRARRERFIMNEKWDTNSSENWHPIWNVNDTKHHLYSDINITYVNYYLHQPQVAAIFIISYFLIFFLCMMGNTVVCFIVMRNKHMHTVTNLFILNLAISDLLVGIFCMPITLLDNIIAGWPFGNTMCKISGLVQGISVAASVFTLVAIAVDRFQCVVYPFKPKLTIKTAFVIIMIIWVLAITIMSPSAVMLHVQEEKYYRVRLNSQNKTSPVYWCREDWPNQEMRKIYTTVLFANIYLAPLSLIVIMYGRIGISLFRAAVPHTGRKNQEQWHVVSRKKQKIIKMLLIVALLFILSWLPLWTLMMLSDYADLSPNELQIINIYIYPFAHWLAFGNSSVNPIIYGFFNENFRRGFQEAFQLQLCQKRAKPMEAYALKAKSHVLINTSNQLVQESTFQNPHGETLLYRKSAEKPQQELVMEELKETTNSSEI

[2] = In vivo assay in rats: 8 week feeding study, body weight and body fat; design: species or system Sprague-Dawley (SD) rats; conditions: high fat diet, 0.1% in chow, 8 weeks, versus control groups
Description: The “further enriched extract” of Example 2 (also called IMD-XT0003 above and below), containing the LXRα active compounds is prepared and tested using six week old, none-adult, male Sprague-Dawley (SD) rats (Charles Rivers, Sulzfeld, Germany). The extract is mixed with the chow (ssniff Spezialdiäten GmbH, Soest, Germany) to a final concentration of 0.1% by weight and fed for 8 weeks in two different treatment regimes: • Balanced diet (standardised to 4% fat) • High fat diet (standardised 34% fat) Controls obtain the same diet without IMD-XT0003 or other anti-obesity additives. Body weight is studied and analysed every week, body fat and mineral bone density are analysed by DEXA (scanner, see Example 3) in week 0, in week 4 and at the last day of the study in week 8. Furthermore, the white body fat weight is determined after removal of the tissue at the end of the feeding study in week 8. For the DEXA measurements the same apparatuses and methodology are used as described in example 3. As a control experiment within the high fat diet, epigallocatechin-3-gallate (EGCG, Chengdu Purification Technology Development Co. Ltd, Chengdu, China) in pure form is used as the standard for comparison of potency and differentiation as well as benchmark against competing compounds or formulations against obesity. […]

Molecule	EC50 [1] [µM]	NPFF2 receptor agonism (NPFF2 receptor)	also measured
COc1cc2c(c(OC)c1OC)-c1c(cc(OC)c(OC)c1OC)CC(C)C(C)C2 (stereo not shown) [Desoxyschizandrol A, 3,3′,4,4′,5,5′-Hexamethoxy-2,2′-cyclolignan]	> 10		
COc1cc2c(c(OC)c1OC)-c1c(cc3c(c1OC)OCO3)[C@H](OC(=O)c1ccccc1)[C@@](C)(O)[C@@H](C)C2 [Gomisin G]		potent NPFF2 receptor agonists	
COc1cc2c(c(OC)c1OC)-c1c(cc(OC)c(OC)c1OC)[C@H](OC(=O)c1ccccc1)[C@@](C)(O)[C@@H](C)C2 [benzoylgomisin Q]		potent NPFF2 receptor agonists	
epigallocatechin-3-gallate [EGCG]			body fat accumulation [2]: No effects; body weight accumulation [2]: No effects

Continued, in another order:

EC50 [1] [µM]	Molecule	NPFF2 receptor agonism (NPFF2 receptor)	also measured
10.6	COc1cc2c(c(OC)c1OC)-c1c(cc3c(c1OC)OCO3)CC(C)C(C)C2 (stereo not shown) [Gomisin N, 3,3,4,5-Tetramethoxy-4′,5′-methylenedioxy-2,2′-cyclolignan]		
5.6	COc1c2c(cc3c1-c1c(cc4c(c1OC)OCO4)CC(C)C(C)C3)OCO2 (stereo not shown) [Schizandrin C, 3,3′-Dimethoxy-4,5:4′,5′-bis(methylenedioxy)-2,2′-cyclolignan]		
